Measurements as given in ChEMBL document CHEMBL1153701, “Synthesis and evaluation of antiallodynic and anticonvulsant activity of novel amide and urea derivatives of valproic acid analogues” (2009).
Active and inactive are the calls of the source. No cut-off for these calls is given here.

Tests used:
Format in all cases: functional, organism-based
Mus musculus [1] = assay: Neurotoxicity in CF1 mouse assessed as protection against motor impairment at 100 mg/kg, ip after 0.5 hrs by rotarod test; design: dose 100 mg/kg
Mus musculus [2] = assay: Antiepileptic activity in CF1 mouse assessed as inhibition of subcutaneous pentylenetetrazole-induced seizures at 100 mg/kg, ip after 0.5 hrs; design: dose 100 mg/kg
Mus musculus [3] = assay: Neurotoxicity in CF1 mouse assessed as protection against motor impairment at 300 mg/kg, ip after 0.5 hrs by rotarod test; design: dose 300 mg/kg
Mus musculus [4] = assay: Antiepileptic activity in CF1 mouse assessed as inhibition of maximal electroshock-induced seizures at 300 mg/kg, ip after 0.5 hrs; design: dose 300 mg/kg
Mus musculus [5] = assay: Neurotoxicity in CF1 mouse assessed as protection against motor impairment at 300 mg/kg, ip after 4 hrs by rotarod test; design: dose 300 mg/kg
Mus musculus [6] = assay: Antiepileptic activity in CF1 mouse assessed as inhibition of maximal electroshock-induced seizures at 100 mg/kg, ip after 4 hrs; design: dose 100 mg/kg
Mus musculus [7] = assay: Neurotoxicity in CF1 mouse assessed as protection against motor impairment at 100 mg/kg, ip after 4 hrs by rotarod test; design: dose 100 mg/kg
Mus musculus [8] = assay: Antiepileptic activity in CF1 mouse assessed as inhibition of subcutaneous pentylenetetrazole-induced seizures at 30 mg/kg, ip after 4 hrs; design: dose 30 mg/kg
Mus musculus [9] = assay: Neurotoxicity in CF1 mouse assessed as protection against motor impairment at 30 mg/kg, ip after 0.5 hrs by rotarod test; design: dose 30 mg/kg
Mus musculus [10] = assay: Antiepileptic activity in CF1 mouse assessed as inhibition of subcutaneous pentylenetetrazole-induced seizures at 30 mg/kg, ip after 0.5 hrs; design: dose 30 mg/kg
Mus musculus [11] = assay: Antiepileptic activity in CF1 mouse assessed as inhibition of maximal electroshock-induced seizures at 300 mg/kg, ip after 4 hrs; design: dose 300 mg/kg
Mus musculus [12] = assay: Antiepileptic activity in CF1 mouse assessed as inhibition of maximal electroshock-induced seizures at 100 mg/kg, ip after 0.5 hrs; design: dose 100 mg/kg
Mus musculus [13] = assay: Antiepileptic activity in CF1 mouse assessed as inhibition of maximal electroshock-induced seizures at 30 mg/kg, ip after 0.5 hrs; design: dose 30 mg/kg
Mus musculus [14] = assay: Antiepileptic activity in CF1 mouse assessed as inhibition of subcutaneous pentylenetetrazole-induced seizures at 300 mg/kg, ip after 4 hrs; design: dose 300 mg/kg
Mus musculus [15] = assay: Antiepileptic activity in CF1 mouse assessed as inhibition of subcutaneous pentylenetetrazole-induced seizures at 100 mg/kg, ip after 4 hrs; design: dose 100 mg/kg
Mus musculus [16] = assay: Antiepileptic activity in CF1 mouse assessed as inhibition of maximal electroshock-induced seizures at 30 mg/kg, ip after 4 hrs; design: dose 30 mg/kg
Rattus norvegicus [17] = assay: Antiallodynic activity in rat assessed as protection against spinal nerve ligation-induced neuropathic pain at 80 mg/kg, ip after 30 mins; design: dose 80 mg/kg
Mus musculus [18] = assay: Neurotoxicity in CF1 mouse assessed as protection against motor impairment at 30 mg/kg, ip after 4 hrs by rotarod test; design: dose 30 mg/kg
Mus musculus [19] = assay: Antiepileptic activity in CF1 mouse assessed as inhibition of subcutaneous pentylenetetrazole-induced seizures at 300 mg/kg, ip after 0.5 hrs; design: dose 300 mg/kg
Rattus norvegicus [20] = assay: Antiallodynic activity in rat assessed as protection against spinal nerve ligation-induced neuropathic pain at 80 mg/kg, ip after 240 mins; design: dose 80 mg/kg
Rattus norvegicus [21] = assay: Antiallodynic activity in rat assessed as protection against spinal nerve ligation-induced neuropathic pain at 80 mg/kg, ip after 60 mins; design: dose 80 mg/kg

Structure (SMILES) | Activity (Mus musculus [1]) | Activity (Mus musculus [2]) | Activity (Mus musculus [3]) | Activity (Mus musculus [4]) | Activity (Mus musculus [5]) | Activity (Mus musculus [6]) | Activity (Mus musculus [7]) | Activity (Mus musculus [8]) | Activity (Mus musculus [9]) | Activity (Mus musculus [10]) | Activity (Mus musculus [11]) | Activity (Mus musculus [12]) | Activity (Mus musculus [13]) | Activity (Mus musculus [14]) | Activity (Mus musculus [15]) | Activity (Mus musculus [16]) | Activity (Rattus norvegicus [17]) | Activity (Mus musculus [18]) | Activity (Mus musculus [19]) | further results
CCC(CC(C)C)C(N)=O (centres undefined) | inactive | inactive | Active | Active | inactive | inactive | inactive | inactive | inactive | inactive | inactive | inactive | inactive | Active | inactive | inactive | inactive | inactive | – | –
CCC(C)C(CC)C(=O)NC (centres undefined) | – | inactive | – | inactive | inactive | inactive | inactive | inactive | inactive | inactive | inactive | inactive | inactive | inactive | inactive | inactive | inactive | inactive | Active | –
CC(C)C(C(N)=O)C(C)(C)C (centres undefined) | – | Active | Active | Active | Active | inactive | inactive | inactive | inactive | inactive | Active | – | inactive | Active | inactive | inactive | – | inactive | Active | –
CCCC(CC(C)C)C(N)=O (centres undefined) | inactive | inactive | Active | Active | inactive | inactive | inactive | inactive | inactive | inactive | inactive | inactive | inactive | inactive | inactive | inactive | – | inactive | Active | Activity (Rattus norvegicus [20]): inactive
CCC(C(N)=O)C(C)C (centres undefined) | inactive | inactive | – | Active | inactive | inactive | inactive | inactive | inactive | inactive | inactive | inactive | inactive | inactive | inactive | inactive | – | inactive | inactive | –
CCCC(CC)C(N)=O (centres undefined) | inactive | inactive | – | Active | inactive | inactive | inactive | inactive | inactive | inactive | Active | – | inactive | inactive | inactive | inactive | – | inactive | Active | –
CCC(CC)C(N)=O | – | inactive | inactive | Active | inactive | inactive | inactive | inactive | inactive | inactive | inactive | – | inactive | inactive | inactive | inactive | inactive | inactive | inactive | Activity (Rattus norvegicus [21]): inactive
CCCCC(CC)C(=O)NC (centres undefined) | inactive | inactive | Active | Active | inactive | inactive | inactive | inactive | inactive | inactive | Active | – | inactive | inactive | inactive | inactive | inactive | inactive | Active | –
CNC(=O)C(C(C)C)C(C)C | – | inactive | – | Active | inactive | inactive | inactive | inactive | inactive | inactive | inactive | inactive | inactive | inactive | inactive | inactive | inactive | inactive | – | –
CC(C)(C)C(N)=O | inactive | – | inactive | inactive | inactive | inactive | inactive | inactive | inactive | inactive | inactive | inactive | inactive | inactive | inactive | inactive | – | inactive | inactive | Activity (Rattus norvegicus [20]): inactive
CC(C)C(C(=O)NC(N)=O)C(C)C | – | Active | Active | Active | Active | inactive | inactive | inactive | – | inactive | Active | – | inactive | inactive | inactive | inactive | – | inactive | Active | –
CC(C)(C)C(=O)NC(N)=O | – | – | – | – | – | – | – | – | – | – | – | – | – | – | – | – | inactive | – | – | Activity (Rattus norvegicus [20]): inactive
CCCC(C(=O)NC)C(C)C (centres undefined) | inactive | inactive | Active | inactive | inactive | inactive | inactive | inactive | inactive | inactive | inactive | inactive | inactive | inactive | inactive | inactive | inactive | inactive | Active | –
CC(C)CC(C(N)=O)C(C)C (centres undefined) | – | inactive | – | inactive | inactive | inactive | inactive | inactive | inactive | inactive | inactive | inactive | inactive | inactive | inactive | inactive | – | inactive | Active | Activity (Rattus norvegicus [20]): inactive
CCCC(CCC)C(=O)NC(N)=O | – | Active | – | Active | – | inactive | inactive | inactive | – | inactive | Active | Active | inactive | inactive | inactive | inactive | – | – | Active | –
